Laboratory results reported in patent US20050239724A1, “Skin penetration enhancing components” (Wyeth, priority 1997, published 2005).

Experiments:
[1] = system: chronic plaque psoriasis; assay: Double blind left-right comparison of topical sirolimus in chronic plaque psoriasis (Example 3); format: in vivo, human
Method: A double blind, left-right comparison of the effect of applying topical sirolimus in formulations as described in Examples 1 and 2, to 24 patients with chronic (over three months) plaque psoriasis was conducted. (22 out of the 24 patients were eventually analysed.) A single target plaque was treated for the first 6 weeks with the lower potency formulation of Example 2. After this the active treatment was increased to the higher potency formulation of Example 1 for 6 weeks unless a clear improvement on one side had already occurred.
Subjects were all aged over 18 years, were able to apply creams and had no other significant medical problems. Transaminases were not more than twice the upper limit of normal and subjects were selected to avoid those likely to have a holiday in sunlight during the 6-12 weeks of the trial.
Before the trial started, there was a two week washout period in which only bland emollients were applied to the target lesions.
Treatment was randomised and double blind. Hands were thoroughly washed between the twice daily application of the test formulations. The active formulation was applied consistently to one plaque while a control comprising only the vehicle base was applied consistently to the plaque on the opposite side. Where possible the arms or elbows were selected as target areas as cross contamination is less likely at these sites.
(§1) Assessments were done at weeks 0, 2, 4 and 6 on the low potency treatment and at 8, 10 and 12 on the higher dose formulation, provided there were no signs or laboratory evidence of toxicity. Clinical scoring was done at each attendance and areas traced at the start and finish of treatment. Biopsies from active and control lesions were performed at the end of treatment or at withdrawal. Biopsies were not done if an adverse event such as a reaction to the application occurred as this would influence the measures being assessed.
The lesions were also assessed at fortnightly intervals with subjective scoring on a scale of 0-8 for erythema, thickening, and scaling. […] These included pulsed A scan ultrasound measurement of lesion thickness and erythema measured with a reflectance erythema metre, both were averaged over 5 areas in each psoriatic lesion and were validated using a previous study which was performed using betamethasome as a reference.
At each visit we measured the full blood count, biochemistry, including urea, electrolytes, liver enzymes, bilirubin, calcium, magnesium, uric acid, glucose, amylase, muscle enzymes, lipids and cholesterol. […]
(§2) Cell counting in tissues was automated, using computer assisted image analysis (Seescan). Data was analysed by Student's T test for paired data and Wilcoxon's test.

[2] = Venous blood sirolimus levels after single topical application (MSGCMS); format: in vivo, human; details: normal skin, 4, 7 and 24 hours
Method: A formulation was formed of 8% sirolimus and 92% of a vehicle of capric acid (50%) with benzyl alcohol (50%). This was tested in single application experiments on four individuals with normal skin.
(§3) A formulation of sirolimus (2.2%) in a vehicle comprising isopropyl myristate 40%, benzyl alcohol 10% and capric acid 50% was tested in single application experiments on three individuals with normal skin. […] After 7 hours biopsy samples were taken from two of the individuals. These were bisected in parallel with the surface to give an upper and lower half, roughly corresponding to the epidermis and dermis. The skin was homogenised with acetonitrile and sirolimus concentration was determined by HPLC.

[3] = Skin biopsy tissue concentration, four 0.7 mm horizontal sections, acetonitrile extraction (Example 1); format: in vivo; details: human, 8 % sirolimus in the formulation
Method: In parallel, skin biopsies were taken from the individuals after 7 hours, the biopsy samples were glued to a glass slide and serially sectioned horizontally into 4 layers each 0.7 mm thick and extracted with acetonitrile.

[4] = system: CD4 helper lymphocytes; assay: Biopsy immunohistochemistry, CD4 helper lymphocytes; format: in vivo, human; details: lesion biopsy at end of treatment; control 61/mm^3; P-0.0026 (unpaired T-test)
Method: as §1
(§4) In biopsies, epidermal thickness was measured and immunoperoxidase immunohistochemistry done using the following antibodies to count cells in a blinded fashion:
(§5) Thus, antibody Ki-67 was used to give a measure of hyperproliferation in the epidermis and CD4 helper lymphocytes were used to give a measure of auto-immune activity which drives psoriasis.
as §2

[5] = system: Ki-67; assay: Biopsy immunohistochemistry, Ki-67 proliferating cells in the epidermis; format: in vivo, human; details: lesion biopsy at end of treatment; control mean 83/mm^3; P-0.027 (unpaired T test)
Method: as §1, §4, §5, §2

[6] = Skin biopsy tissue concentration, upper and lower half, HPLC (Example 2); format: in vivo, human; details: 7 hours after application, 2.2% sirolimus in capric acid:isopropyl myristate:benzyl alcohol 50:40:10; for concentration at 7 h: human, skin biopsy, topical, 2.2 % sirolimus in the formulation, Subject A
Method: as §3

With `CO[C@H]1C[C@@H]2CC[C@@H](C)[C@@](O)(O2)C(=O)C(=O)N2CCCC[C@H]2C(=O)O[C@H]([C@H](C)C[C@@H]2CC[C@@H](O)[C@H](OC)C2)CC(=O)[C@H](C)/C=C(\C)[C@@H](O)[C@@H](OC)C(=O)[C@H](C)C[C@H](C)/C=C/C=C/C=C/1C` [sirolimus] the “contact sensitivity to the topical preparations” value ([1]; 22 analysed patients, one to benzyl alcohol, one to sirolimus and one to both) was “Three of the twenty-two patients developed contact sensitivity”, the “Ultrasound thickness, mean” value ([1]; psoriatic lesion, topical twice daily, 2.2% then 8% formulation, vehicle control 2.96, NS) was 2.99 mm and the “Erythema measurement, mean” value ([1]; reflectance erythema metre, topical twice daily, 2.2% then 8% formulation, vehicle control 33.1, NS) was 34.5 arbitrary units. The “Clinical Score, mean” value ([1]; scale of 0-24, high values indicating a better result, final score, topical twice daily, 2.2% formulation 6 weeks then 8% formulation 6 weeks, vehicle control 9.1, p = 0.032) was 11.2, the “sirolimus levels in venous blood” value ([2]; 2.2% sirolimus in isopropyl myristate 40%, benzyl alcohol 10%, capric acid 50%, three individuals, MSGCMS) was “no significant levels of sirolimus were detected” and the “sirolimus levels in venous blood” value ([2]; 8% sirolimus in capric acid:benzyl alcohol 50:50, four individuals, MSGCMS detects down to 0.1 ng/ml) was “no significant levels of sirolimus were detected”. For the same compound, the concentration at 7 h ([3]; section 1 (surface, 0-0.7 mm), topical, subject A, section 1 (surface, 0-0.7 mm), 7 hours after application, 8% sirolimus in capric acid:benzyl alcohol 50:50, read-out: Sirolimus concentration, skin section 1) was 59000 ng/g, the concentration at 7 h ([3]; section 1 (surface, 0-0.7 mm), topical, subject B, section 1 (surface, 0-0.7 mm), 7 hours after application, 8% sirolimus in capric acid:benzyl alcohol 50:50, read-out: Sirolimus concentration, skin section 1) was 288000 ng/g and the concentration at 7 h ([3]; section 1 (surface, 0-0.7 mm), topical, subject C, section 1 (surface, 0-0.7 mm), 7 hours after application, 8% sirolimus in capric acid:benzyl alcohol 50:50, read-out: Sirolimus concentration, skin section 1) was 301000 ng/g. It also gave a concentration at 7 h ([3]; section 1 (surface, 0-0.7 mm), topical, subject D, section 1 (surface, 0-0.7 mm), 7 hours after application, 8% sirolimus in capric acid:benzyl alcohol 50:50, read-out: Sirolimus concentration, skin section 1) of 216000 ng/g, a concentration at 7 h ([3]; section 2 (0.7-1.4 mm), topical, subject B, section 2 (0.7-1.4 mm), 7 hours after application, 8% sirolimus in capric acid:benzyl alcohol 50:50, read-out: Sirolimus concentration, skin section 2) of 108000 ng/g and a concentration at 7 h ([3]; section 2 (0.7-1.4 mm), topical, subject C, section 2 (0.7-1.4 mm), 7 hours after application, 8% sirolimus in capric acid:benzyl alcohol 50:50, read-out: Sirolimus concentration, skin section 2) of 144000 ng/g. It also gave a concentration at 7 h ([3]; section 2 (0.7-1.4 mm), topical, subject D, section 2 (0.7-1.4 mm), 7 hours after application, 8% sirolimus in capric acid:benzyl alcohol 50:50, read-out: Sirolimus concentration, skin section 2) of 126000 ng/g, a concentration at 7 h ([3]; section 3, topical, subject A, section 3, 7 hours after application, 8% sirolimus in capric acid:benzyl alcohol 50:50, read-out: Sirolimus concentration, skin section 3) of 255000 ng/g and a concentration at 7 h ([3]; section 3, topical, subject B, section 3, 7 hours after application, 8% sirolimus in capric acid:benzyl alcohol 50:50, read-out: Sirolimus concentration, skin section 3) of 173000 ng/g. For the same compound, the concentration at 7 h ([3]; section 3, topical, subject C, section 3, 7 hours after application, 8% sirolimus in capric acid:benzyl alcohol 50:50, read-out: Sirolimus concentration, skin section 3) was 339000 ng/g, the concentration at 7 h ([3]; section 3, topical, subject D, section 3, 7 hours after application, 8% sirolimus in capric acid:benzyl alcohol 50:50, read-out: Sirolimus concentration, skin section 3) was 256000 ng/g and the concentration at 7 h ([3]; section 4, topical, subject A, section 4, 7 hours after application, 8% sirolimus in capric acid:benzyl alcohol 50:50, read-out: Sirolimus concentration, skin section 4) was 239000 ng/g. It also gave a concentration at 7 h ([3]; section 4, topical, subject B, section 4, 7 hours after application, 8% sirolimus in capric acid:benzyl alcohol 50:50, read-out: Sirolimus concentration, skin section 4) of 214000 ng/g, a concentration at 7 h ([3]; section 4, topical, subject C, section 4, 7 hours after application, 8% sirolimus in capric acid:benzyl alcohol 50:50, read-out: Sirolimus concentration, skin section 4) of 370000 ng/g and a concentration at 7 h ([3]; section 4, topical, subject D, section 4, 7 hours after application, 8% sirolimus in capric acid:benzyl alcohol 50:50, read-out: Sirolimus concentration, skin section 4) of 241000 ng/g. The “CD4 cells, mean” value [4] was 32.7 /mm^3, the “Ki-67 proliferating cells, mean” value [5] was 55 /mm^3 and the “Sirolimus Concentration, lower skin segment” value ([6]; Subject B, Lower (2), roughly dermis) was 0.5 µg/mg. The “Sirolimus Concentration, upper skin segment” value ([6]; Subject B, Upper (1), roughly epidermis) was 1.5 µg/mg, the concentration at 7 h ([6]; lower half (roughly dermis), Lower (2), roughly dermis, read-out: Sirolimus Concentration, lower skin segment) was 333000 ng/g and the concentration at 7 h ([6]; upper half (roughly epidermis), Upper (1), roughly epidermis, read-out: Sirolimus Concentration, upper skin segment) was 0 ng/g.
